Measured values taken from US11814367B2, “Inhibitors of glycogen synthase 1 (GYS1) and methods of use thereof” (Maze Therapeutics, Inc., priority 2021, dated 2023).

Key:
[1] = system: hGYS1 enzyme / glycogen synthesis in HeLa cells; experiment: GYS1 cell based assay (glycogen synthesis, Glucose-glo); parameters: species or system human; settings: Homo sapiens, 24 h incubation, 20 mM glucose, geometric mean of at least 2 runs
In short: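 HeLa cells starved 24 h in medium containing only 1× Glutamax were plated onto compound in medium with 20 mM glucose (1% DMSO final) for 24 h, 37 °C, 5% CO2. Acid lysates were Tris-quenched, glucoamylase-digested (pH 5.3, 1 h, 37 °C) and read by Glucose-glo luminescence. IC50 came from Hill fits, as geometric mean of ≥2 runs.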

[2] = biological target: hGYS1 enzyme (recombinant hGYS1/GN1 protein) (Homo sapiens (Human), UniProt P13807); experiment: GYS1 coupled enzyme assay (PK/LDH); assay type: biochemical; settings: hGYS1/GN1 50 nM, UDP-Glucose 0.8 mM, G6P 1 mM; geometric mean of at least 2 runs
Chain of hGYS1 enzyme (recombinant hGYS1/GN1 protein) (P13807 whole entry): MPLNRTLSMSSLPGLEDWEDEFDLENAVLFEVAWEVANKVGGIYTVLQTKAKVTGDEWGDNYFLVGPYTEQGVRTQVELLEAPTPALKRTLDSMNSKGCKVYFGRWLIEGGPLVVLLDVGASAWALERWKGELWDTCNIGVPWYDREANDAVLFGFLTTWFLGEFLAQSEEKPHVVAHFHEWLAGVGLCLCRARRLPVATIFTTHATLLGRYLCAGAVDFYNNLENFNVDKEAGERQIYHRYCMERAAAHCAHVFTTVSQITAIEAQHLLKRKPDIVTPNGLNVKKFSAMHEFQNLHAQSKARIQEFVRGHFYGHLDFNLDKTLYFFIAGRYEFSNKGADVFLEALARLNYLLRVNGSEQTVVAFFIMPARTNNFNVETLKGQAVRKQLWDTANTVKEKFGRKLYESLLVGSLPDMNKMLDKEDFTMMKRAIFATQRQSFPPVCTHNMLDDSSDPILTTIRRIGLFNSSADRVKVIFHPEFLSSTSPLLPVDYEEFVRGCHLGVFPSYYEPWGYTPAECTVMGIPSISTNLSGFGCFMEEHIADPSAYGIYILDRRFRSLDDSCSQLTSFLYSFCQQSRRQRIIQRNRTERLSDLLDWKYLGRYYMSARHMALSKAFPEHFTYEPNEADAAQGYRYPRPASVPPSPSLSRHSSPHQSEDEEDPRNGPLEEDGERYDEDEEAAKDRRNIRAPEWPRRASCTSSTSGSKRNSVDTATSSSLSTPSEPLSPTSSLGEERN
Chain of hGYS1 enzyme (recombinant hGYS1/GN1 protein) (P46976 whole entry partner): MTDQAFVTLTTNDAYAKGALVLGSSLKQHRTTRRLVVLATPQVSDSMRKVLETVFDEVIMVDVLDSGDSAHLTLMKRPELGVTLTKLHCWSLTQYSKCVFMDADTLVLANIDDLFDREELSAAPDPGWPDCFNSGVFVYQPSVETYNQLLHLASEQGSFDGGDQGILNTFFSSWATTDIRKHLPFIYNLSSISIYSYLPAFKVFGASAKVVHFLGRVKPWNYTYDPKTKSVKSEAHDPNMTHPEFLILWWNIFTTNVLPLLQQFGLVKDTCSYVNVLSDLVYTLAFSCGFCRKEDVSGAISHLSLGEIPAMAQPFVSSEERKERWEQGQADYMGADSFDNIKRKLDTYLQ

SMILES	IC50 [2]	IC50 ([1]; HeLa, 24 h)	IC50 [1]
COC(=O)NCc1cccc([C@H](NC(=O)[C@@H]2C[C@@H](F)CN2C(=O)Cc2cnn[nH]2)c2ccc(C(C)C)c(F)n2)c1 [Compound 638, methyl (3-((S)-((2S,4R)-1-(2-(1H-1,2,3-triazol-5-yl)acetyl)-4-fluoropyrrolidine-2-carboxamido)(6-fluoro-5-isopropylpyridin-2-yl)methyl)benzyl)carbamate]	399 nM		> 23400 nM
CC(=O)NCc1cccc([C@H](NC(=O)[C@@H]2C[C@@H](F)CN2C(=O)Cc2cnn[nH]2)c2ccc(C(C)C)c(F)n2)c1 [Compound 655, (2S,4R)-N-[(S)-[3-(acetamidomethyl)phenyl][6-fluoro-5-(propan-2-yl)pyridin-2-yl]methyl]-4-fluoro-1-[2-(1H-1,2,3-triazol-5-yl)acetyl]pyrrolidine-2-carboxamide]	1010 nM	> 30000 nM	
CNC(=O)NCc1cccc([C@H](NC(=O)[C@@H]2C[C@@H](F)CN2C(=O)Cc2cnn[nH]2)c2ccc(C(C)C)c(F)n2)c1 [Compound 656, (2S,4R)-4-fluoro-N-[(S)-[6-fluoro-5-(propan-2-yl)pyridin-2-yl](3-{[(methylcarbamoyl)amino]methyl}phenyl)methyl]-1-[2-(1H-1,2,3-triazol-5-yl)acetyl]pyrrolidine-2-carboxamide]	1300 nM	10800 nM	
CC1(c2ccc([C@H](NC(=O)[C@@H]3C[C@@H](F)CN3C(=O)Cc3cnn[nH]3)c3ccccc3)cc2F)CCC1 [Compound 684, (2S,4R)-4-fluoro-N-[(R)-[3-fluoro-4-(1-methylcyclobutyl)phenyl](phenyl)methyl]-1-[2-(1H-1,2,3-triazol-5-yl)acetyl]pyrrolidine-2-carboxamide]	1330 nM	13800 nM	
CC(C)c1ccc([C@H](NC(=O)[C@@H]2C[C@@H](F)CN2C(=O)Cc2cnn[nH]2)c2cccc(-c3ccn[nH]3)c2)nc1F [Compound 687, (2S,4R)-1-(2-(1H-1,2,3-triazol-5-yl)acetyl)-N—((R)-(3-(1H-pyrazol-5-yl)phenyl)(6-fluoro-5-isopropylpyridin-2-yl)methyl)-4-fluoropyrrolidine-2-carboxamide]	3820 nM	> 30000 nM	
CCN(CC)c1cnnn1CC(=O)N1C[C@H](F)C[C@H]1C(=O)N[C@@H](c1ccccc1)c1ccc(C(C)C)cn1 [Compound 713, (2S,4R)-1-{2-[5-(diethylamino)-1H-1,2,3-triazol-1-yl]acetyl}-4-fluoro-N-[(S)-phenyl[5-(propan-2-yl)pyridin-2-yl]methyl]pyrrolidine-2-carboxamide]	74 nM	860 nM	
CC(C)c1ccc([C@@H](NC(=O)[C@@H]2C[C@@H](F)CN2C(=O)Cn2nncc2N2CC(F)(F)C2)c2ccccc2)nc1 [Compound 714, (2S,4R)-1-{2-[5-(3,3-difluoroazetidin-1-yl)-1H-1,2,3-triazol-1-yl]acetyl}-4-fluoro-N-[(S)-phenyl[5-(propan-2-yl)pyridin-2-yl]methyl]pyrrolidine-2-carboxamide]	45 nM	1390 nM	
CN(C)c1cnn(CC(=O)N2C[C@H](F)C[C@H]2C(=O)N[C@H](c2ccccc2)c2ccc(C3CC3)c(F)n2)n1 [Compound 717, (2S,4R)-N-[(R)-(5-cyclopropyl-6-fluoropyridin-2-yl)(phenyl)methyl]-1-{2-[4-(dimethylamino)-2H-1,2,3-triazol-2-yl]acetyl}-4-fluoropyrrolidine-2-carboxamide]	1480 nM	> 25800 nM	
O=C(N[C@H](c1ccccc1)c1ccc(C2CC2)c(F)n1)[C@@H]1C[C@@H](F)CN1C(=O)Cc1cccn2c(=O)[nH]nc12 [Compound 718, (2S,4R)-N-[(R)-(5-cyclopropyl-6-fluoropyridin-2-yl)(phenyl)methyl]-4-fluoro-1-(2-{3-oxo-2H,3H-[1,2,4]triazolo[4,3-a]pyridin-8-yl}acetyl)pyrrolidine-2-carboxamide]	2620 nM	> 30000 nM	
Cc1nccc(NCC(=O)N2C[C@H](F)C[C@H]2C(=O)N[C@H](c2ccccc2)c2ccc(C3CC3)c(F)n2)n1 [Compound 720, (2S,4R)-N-[(R)-(5-cyclopropyl-6-fluoropyridin-2-yl)(phenyl)methyl]-4-fluoro-1-{2-[(2-methylpyrimidin-4-yl)amino]acetyl}pyrrolidine-2-carboxamide]	2450 nM	> 30000 nM	
O=C(N[C@@H](c1ccccc1)c1ccc(C2CC2)c(F)n1)[C@@H]1C[C@@H](F)CN1C(=O)Cc1cnn[nH]1 [Compound 721, (2S,4R)-N-[(S)-(5-cyclopropyl-6-fluoropyridin-2-yl)(phenyl)methyl]-4-fluoro-1-[2-(1H-1,2,3-triazol-5-yl)acetyl]pyrrolidine-2-carboxamide]	79 nM	1090 nM	
O=C(N[C@@H](c1ccccc1)c1ccc(C2CC2)c(F)n1)[C@@H]1C[C@@H](F)CN1C(=O)Cc1nc(C(F)(F)F)co1 [Compound 738, (2S,4R)-N-[(S)-(5-cyclopropyl-6-fluoropyridin-2-yl)(phenyl)methyl]-4-fluoro-1-{2-[4-(trifluoromethyl)-1,3-oxazol-2-yl]acetyl}pyrrolidine-2-carboxamide]	105 nM	1210 nM	
O=C(N[C@@H](c1ccccc1)c1ccc(C2CC2)c(F)n1)[C@@H]1C[C@@H](F)CN1C(=O)CNC(=O)N(Cc1ccccc1)C(F)(F)F [Compound 744, (2S,4R)-1-(2-{[benzyl(trifluoromethyl)carbamoyl]amino}acetyl)-N-[(S)-(5-cyclopropyl-6-fluoropyridin-2-yl)(phenyl)methyl]-4-fluoropyrrolidine-2-carboxamide]	46 nM	1520 nM	

Stronger by IC50 [2], values ahead:

IC50 [2]	IC50 ([1]; HeLa, 24 h)	SMILES	IC50 [1]
37 nM	760 nM	O=C(N[C@@H](c1ccccc1)c1ccc(C2CC2)c(F)n1)[C@@H]1C[C@@H](F)CN1C(=O)Cn1ccc(C(F)(F)F)n1 [Compound 730, (2S,4R)-N-[(S)-(5-cyclopropyl-6-fluoropyridin-2-yl)(phenyl)methyl]-4-fluoro-1-{2-[3-(trifluoromethyl)-1H-pyrazol-1-yl]acetyl}pyrrolidine-2-carboxamide]	
37 nM	550 nM	CCOc1ncc(CC(=O)N2C[C@H](F)C[C@H]2C(=O)N[C@@H](c2ccccc2)c2ccc(C3CC3)c(F)n2)cc1C [Compound 737, (2S,4R)-N-[(S)-(5-cyclopropyl-6-fluoropyridin-2-yl)(phenyl)methyl]-1-[2-(6-ethoxy-5-methylpyridin-3-yl)acetyl]-4-fluoropyrrolidine-2-carboxamide]	
28 nM	480 nM	COc1nc(CC(=O)N2C[C@H](F)C[C@H]2C(=O)N[C@@H](c2ccccc2)c2ccc(C3CC3)c(F)n2)nn1C [Compound 743, (2S,4R)-N-[(S)-(5-cyclopropyl-6-fluoropyridin-2-yl)(phenyl)methyl]-4-fluoro-1-[2-(5-methoxy-1-methyl-1H-1,2,4-triazol-3-yl)acetyl]pyrrolidine-2-carboxamide]	
24 nM	630 nM	CCn1cc(CC(=O)N2C[C@H](F)C[C@H]2C(=O)N[C@@H](c2ccccc2)c2ccc(C3CC3)c(F)n2)ncc1=O [Compound 742, (2S,4R)-N-[(S)-(5-cyclopropyl-6-fluoropyridin-2-yl)(phenyl)methyl]-1-[2-(4-ethyl-5-oxo-4,5-dihydropyrazin-2-yl)acetyl]-4-fluoropyrrolidine-2-carboxamide]	
24 nM	510 nM	O=C(N[C@@H](c1ccccc1)c1ccc(C2CC2)c(F)n1)[C@@H]1C[C@@H](F)CN1C(=O)Cn1nncc1C(F)(F)F [Compound 745, (2S,4R)-N-[(S)-(5-cyclopropyl-6-fluoropyridin-2-yl)(phenyl)methyl]-4-fluoro-1-{2-[5-(trifluoromethyl)-1H-1,2,3-triazol-1-yl]acetyl}pyrrolidine-2-carboxamide]	
17 nM	340 nM	CCn1cc(CC(=O)N2C[C@H](F)C[C@H]2C(=O)N[C@@H](c2ccccc2)c2ccc(C3CC3)c(F)n2)cc(C)c1=O [Compound 739, (2S,4R)-N-[(S)-(5-cyclopropyl-6-fluoropyridin-2-yl)(phenyl)methyl]-1-[2-(1-ethyl-5-methyl-6-oxo-1,6-dihydropyridin-3-yl)acetyl]-4-fluoropyrrolidine-2-carboxamide]	
16 nM	710 nM	CCn1cccc(CC(=O)N2C[C@H](F)C[C@H]2C(=O)N[C@@H](c2ccccc2)c2ccc(C3CC3)c(F)n2)c1=O [Compound 741, (2S,4R)-N-[(S)-(5-cyclopropyl-6-fluoropyridin-2-yl)(phenyl)methyl]-1-[2-(1-ethyl-2-oxo-1,2-dihydropyridin-3-yl)acetyl]-4-fluoropyrrolidine-2-carboxamide]	
15 nM	330 nM	COc1nc(CC(=O)N2C[C@H](F)C[C@H]2C(=O)N[C@@H](c2ccccc2)c2ccc(C(C)C)cn2)nn1C [Compound 712, (2S,4R)-4-fluoro-1-[2-(5-methoxy-1-methyl-1H-1,2,4-triazol-3-yl)acetyl]-N-[(S)-phenyl[5-(propan-2-yl)pyridin-2-yl]methyl]pyrrolidine-2-carboxamide]	
9 nM	320 nM	CCn1cc(C)cc(CC(=O)N2C[C@H](F)C[C@H]2C(=O)N[C@@H](c2ccccc2)c2ccc(C3CC3)c(F)n2)c1=O [Compound 740, (2S,4R)-N-[(S)-(5-cyclopropyl-6-fluoropyridin-2-yl)(phenyl)methyl]-1-[2-(1-ethyl-5-methyl-2-oxo-1,2-dihydropyridin-3-yl)acetyl]-4-fluoropyrrolidine-2-carboxamide]	
